Data: patent US20130303439A1, “CHIMERIC PEPTIDES INCLUDING A PENETRATING PEPTIDE AND A BINDING DOMAIN OF PP2A CATALYTIC SUBUNIT TO CASPASE-9” (Institut National de la Sante et de la Recherche Medicale …, priority 2010, published 2013)
Residues, ends and D or L forms follow the SMILES beside them.

Experiment: Cell penetration / internalization of peptides
Type: cell-based

Row | Structure (SMILES) | Cell penetration | internalized
1 | CC[C@H](C)[C@H](NC(=O)CNC(=O)[C@H](CC(=O)O)NC(=O)[C@H](CC(C)C)NC(=O)[C@@H](NC(=O)[C@H](CCC(=O)O)NC(=O)[C@@H](NC(=O)[C@H](Cc1ccc(O)cc1)NC(=O)[C@@H](NC(=O)[C@H](CCCCN)NC(=O)[C@@H](NC(=O)[C@H](CCC(=O)O)NC(=O)[C@H](CCCNC(=N)N)NC(=O)[C@H](CCCCN)NC(=O)[C@@H](NC(=O)[C@H](CCCCN)NC(=O)[C@H](CCCCN)NC(=O)[C@H](CCCCN)NC(=O)[C@H](CCCCN)NC(=O)[C@@H](N)C(C)C)[C@@H](C)CC)[C@@H](C)CC)[C@@H](C)CC)[C@@H](C)CC)[C@@H](C)O)C(=O)N[C@@H](CC(C)C)C(=O)N[C@@H](CCC(=O)O)C(=O)N[C@@H](CCC(N)=O)C(=O)N[C@@H](Cc1c[nH]c2ccccc12)C(=O)N[C@@H](C)C(=O)N[C@@H](CCCNC(=N)N)C(=O)N[C@@H](CO)C(=O)N[C@@H](CCC(=O)O)C(=O)N[C@@H](CC(=O)O)C(=O)N[C@@H](CC(C)C)C(=O)O [DPT-C9, VKKKKIKREIKI-YIETLDGILEQWARSEDL] (H-VKKKKIKREIKIYIETLDGILEQWARSEDL-OH; N-terminus and C-terminus assumed) | Yes | are internalized
2 | CC[C@H](C)[C@H](NC(=O)CNC(=O)[C@H](CC(=O)O)NC(=O)[C@H](CC(C)C)NC(=O)[C@@H](NC(=O)[C@H](CCC(=O)O)NC(=O)[C@@H](NC(=O)[C@@H](N)Cc1ccc(O)cc1)[C@@H](C)CC)[C@@H](C)O)C(=O)N[C@@H](CC(C)C)C(=O)N[C@@H](CCC(=O)O)C(=O)N[C@@H](CCC(N)=O)C(=O)N[C@@H](Cc1c[nH]c2ccccc12)C(=O)N[C@@H](C)C(=O)N[C@@H](CCCNC(=N)N)C(=O)N[C@@H](CO)C(=O)N[C@@H](CCC(=O)O)C(=O)N[C@@H](CC(=O)O)C(=O)N[C@@H](CC(C)C)C(=O)O [C9, YIETLDGILEQWARSEDL] (H-YIETLDGILEQWARSEDL-OH; N-terminus and C-terminus assumed) | No | is not internalized
3 | CC[C@H](C)[C@H](NC(=O)[C@H](CC(C)C)NC(=O)[C@H](CCC(=O)O)NC(=O)[C@H](CCC(N)=O)NC(=O)[C@H](Cc1c[nH]c2ccccc12)NC(=O)[C@H](C)NC(=O)[C@H](CCCNC(=N)N)NC(=O)[C@H](CO)NC(=O)[C@H](CCC(=O)O)NC(=O)[C@H](CC(=O)O)NC(=O)[C@H](CC(C)C)NC(=O)[C@@H](NC(=O)[C@H](CCCCN)NC(=O)[C@@H](NC(=O)[C@H](CCC(=O)O)NC(=O)[C@H](CCCNC(=N)N)NC(=O)[C@H](CCCCN)NC(=O)[C@@H](NC(=O)[C@H](CCCCN)NC(=O)[C@H](CCCCN)NC(=O)[C@H](CCCCN)NC(=O)[C@H](CCCCN)NC(=O)[C@@H](N)C(C)C)[C@@H](C)CC)[C@@H](C)CC)[C@@H](C)CC)C(=O)NCC(=O)N[C@@H](CC(=O)O)C(=O)N[C@@H](CC(C)C)C(=O)N[C@H](C(=O)N[C@@H](CCC(=O)O)C(=O)N[C@H](C(=O)N[C@@H](Cc1ccc(O)cc1)C(=O)O)[C@@H](C)CC)[C@@H](C)O [DPT-C9r, VKKKKIKREIKI-LDESRAWQELIGDLTEIY] (H-VKKKKIKREIKILDESRAWQELIGDLTEIY-OH; N-terminus and C-terminus assumed) | Yes | are internalized
4 | N=C(N)NCCC[C@H](NC(=O)[C@H](CCCNC(=N)N)NC(=O)[C@H](CCCNC(=N)N)NC(=O)[C@H](CCC(N)=O)NC(=O)[C@H](CCCNC(=N)N)NC(=O)[C@H](CCCNC(=N)N)NC(=O)[C@H](CCCCN)NC(=O)[C@H](CCCCN)NC(=O)[C@H](CCCNC(=N)N)NC(=O)CNC(=O)[C@@H](N)Cc1ccc(O)cc1)C(=O)O [Tat, YGRKKRRQRRR] | – | are internalized
